Test results: patent US20110124888A1, “STYRYLBENZOFURAN DERIVATIVES AS INHIBITORS FOR BETA-AMYLOID FIBRIL FORMATION AND PREPARATION METHOD THEREOF” (Korea Institute of Science and Technology, priority 2008, published 2011)

Columns and labels:
[1] = biological target: T1, beta-amyloid 42 (Aβ42) (Homo sapiens, UniProt P05067); experiment: Inhibitory effect on the formation of beta-amyloid fibrils in vitro (ThT fluorescence assay); type: biochemical; details: for inhibition at 10 µM: 10 μM compound, Aβ42 25 μM, read-out: % Inhibition (10 μM); for IC50: In vitro ThT analysis (Aβ42: 25 μM); for % inhibition against the beta-amyloid 42 formation compared with curcumin: Tables 1 to 6, relative to curcumin
T1 construct: Beta-amyloid 42 (Aβ42) was dissolved in dimethylsulfoxide (DMSO)

[2] = Passage test through the blood-brain barrier in mice (brain tissue); type: in vivo, ICR mice; details: for Kp / Tmax: mouse; for Kp: brain; for Tmax / Cmax (brain): brain tissue
Description: (§1) 1) Test Animal and Administration of Test Compound
(§2) Three 7 week-old ICR mice (weight: about 30 g) and three 8 week-old SD rats (weight: about 250 g) were used per test group. A solution prepared by dissolving the compounds of Examples 9 and 17 in excipient (DMSO/Tween 20/saline: 0.1/0.6/2.3, v/v/v) were administered to each experimental animal. The test compound was orally administered in an amount of 10 mL per kg of body weight or intravenously administered in an amount of 5 mL per kg of body weight through the fine vein.
(§3) 2) Measurement of Concentration in Blood and Tissue (Simultaneous Test)
(§4) At 30 min, 1 hr, 2 hr, 4 hr, 10 hr and 24 hr after administration of test compound, the mice and rats were subjected to insufflations narcosis using isoflorane, followed by cutting the abdomen open. 1 mL of blood was collected from abdominal veins into the tube containing heparin (1000 IU/mL, 3 μl). The obtained blood sample was centrifuged at 12,000 rpm, for 2 min to obtain plasma. The obtained plasma was kept in freezer at −80° C. until the analysis.
(§5) (2) Organ Tissue-Sampling
(§6) The mice and rats from which the blood sample was obtained were subjected to bloodletting, and then, brain tissue of the mice and rats was collected. The brain tissue thus obtained was washed with physiological saline once or twice to remove blood. The weight of the brain tissue was measured after the removal of adipose tissue and peripheral tissue. 4% bovine serum albumin (BSA) solution diluted with 10-fold was added to the brain tissue. The resulting solution was subjected to homogenization using the homogenizer. The diluted homogenate thus obtained was placed in 2 ml of tube and was kept in freezer at −80° C. until the analysis. All of the treatments to the samples were performed in ice.
(§7) The sample was analyzed using LC/MSMS system under the following condition:
(§8) The sample was pretreated as follows:
(§9) 50 μL of plasma were placed in 2.0 mL of tube having a cap (Eppendorf Co.) and acidified by adding 20 μL of 0.1% formic acid thereto. An internal standard solution and 1 mL of ethyl acetate as an extract solvent were added to the resultant solution. The resultant solution was mixed using thermomixer (Eppendorf Co.) at 1400 rpm for 5 min and then subjected to centrifuge (Eppendorf Co.). The supernatant was collected and concentrated at 35° C. using cyclone. The residue was re-dissolved in 50 μL of moblie phase and 5 μL of the resulting solution was injected into LC/MS and analyzed.
(§10) In Tables 8 and 9, “iv” refers to a intravenous injection; “po” refers to a per oral; “AUC plasma” refers to an area under the plasma level-time curve; “Cmax” refers to a maximum plasma concentration; “Tmax” refers to a time to reach Cmax, “BA” refers to a bioavailability (%) according to Equation 2 below; “AUC Brain” refers to a area under the brain tissue level-time curve; and “AUCBrain/AUCPlasma” refers to a passage rate of the test compound to the brain.

[3] = Passage test through the blood-brain barrier in rats (brain tissue); type: in vivo, SD rats; details: for Cmax (brain) / Tmax: brain tissue; for Tmax / Kp: SD, rat; for Kp: brain, read-out: AUCBrain/AUC Plasma
Description: as §1, §2, §3, §4, §5, §6, §7, §8, §9, §10

[4] = ICR (mice), SD (rats), mice and rats, Tables 8 and 9, read-out: passage ability through the blood-brain barrier compared with plasma
[5] = ICR, mice, 1.25 mg/kg, iv, read-out: AUCBrain/AUC Plasma
[6] = ICR, mice, 2.5 mg/kg, po, read-out: AUCBrain/AUC Plasma

T1 sequence (P05067 672-713 limits assumed): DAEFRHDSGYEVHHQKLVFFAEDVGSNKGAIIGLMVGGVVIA

| SMILES | inhibition at 10 µM ([1]; experiment of Table 7) [%] | IC50 ([1]; experiment of Table 1) [nM] | IC50 ([1]; experiment of Table 7) [nM] | % inhibition against the beta-amyloid 42 formation compared with curcumin [1] | Kp [2, 4] | Kp [2, 5] | Kp [2, 6] | Tmax ([2]; ICR, mice, 2.5 mg/kg, po) [h] | AUC Brain ([2]; mice, 1.25 mg/kg, iv) [ng·h/mL] | AUC Brain ([2]; mice, 2.5 mg/kg, po) [ng·h/mL] | Cmax (brain) ([2]; mice, 2.5 mg/kg, po) [ng/mL] | AUC Brain ([3]; 1.25 mg/kg, iv) [ng·h/mL] | AUC Brain ([3]; 2.5 mg/kg, po) [ng·h/mL] | Cmax (brain) ([3]; 2.5 mg/kg, po) [ng/mL] | Tmax ([3]; 2.5 mg/kg, po) [h] | Kp ([3]; 1.25 mg/kg, iv) | Kp ([3]; 2.5 mg/kg, po) |
| --- | --- | --- | --- | --- | --- | --- | --- | --- | --- | --- | --- | --- | --- | --- | --- | --- | --- |
| CNc1ccc(C=Cc2cc3cc(OC)ccc3o2)cc1 [Compound 17, 5-methoxy-2-(4-methylaminostyryl)benzofuran] | 74.6 | 78 | 725 | superior % inhibition | ≥ 1 | 10.6 | 7.2 | 2 | 2525.45 | 2354.58 | 462.67 | 8740.33 | 11237.67 | 1406.67 | 1.67 | 7.6 | 21.8 |
| COc1ccc2cc(C=Cc3ccc(N(C)C)cc3)oc2c1 [Compound 9, 6-methoxy-2-(4-dimethylaminostyryl)benzofuran] | 78.7 | 70 | 972 | superior % inhibition | ≥ 1 | 12.1 | 12.6 | 4 | 6101.86 | 8137.42 | 899.33 | 17939.63 | 15241.92 | 1309.00 | 2 | 11 | 16.8 |
